Measurements published in article PMC3608651, “A Broad Profile of Co-Dominant Epitopes Shapes the Peripheral Mycobacterium tuberculosis Specific CD8+ T-Cell Immune Response in South African Patients with Active Tuberculosis” (PLoS ONE, 2013).
Where two headings read alike, the source gives them in different places.

Assays:
Format in all cases: binding
[1] = target: T1, HLA-A*02:01 (Homo sapiens, UniProt P04439, D140Y/D185E/D98H/E176V/E277Q/G131W/G231S/I119V/I121R/I166T/I218V/L300P/L318F/N151K/N90K/P208A/P217A/Q86G/Q94H/R138H/R169H/T345S); settings: peptide quantity for 50% binding saturation
[2] = target: HLA-A*24:02 (Homo sapiens, UniProt P04439, D101N/D140Y/D185E/E176V/E190D/F33S/G103R/G107R/I119L/I121M/I306V/K335N/L105A/L180Q/L300P/N151K/N90K/Q86E/Q94H/R106L/R138H/R89G/T104I/T345S/V100E/W191G/Y123F); settings: duplicated experiments, positive binder >40%
[3] = target: T2, HLA-A*68:01 (Homo sapiens, UniProt P04439, A269V/D185E/E176V/E277Q/E87N/F33Y/G231S/I121M/I166T/I218V/L180W/L300P/L318F/N151K/P208A/P217A/Q86R/R169H/T345S); settings: duplicated experiments, positive binder >40%
[4] = target: HLA-A*30:01 (Homo sapiens, UniProt P04439, D140H/D185E/E176W/F33S/G80R/H175R/K168Q/R138E/R41S); settings: duplicated experiments, positive binder >40%
[5] = target: HLA-C*07:01 (Homo sapiens, UniProt P10321, K90N/S123Y); settings: duplicated experiments, positive binder >40%
[6] = target: T1, HLA-A*02:01; settings: plate-bound monomer 0.5 µg/ml, duplicated experiments, positive binder >40%
[7] = target: HLA-B*07:02 (Homo sapiens, UniProt P01889); settings: percent relative the binding of positive control peptide […]; duplicated experiments; positive binder >40%
[8] = target: T1, HLA-A*02:01; settings: time points 0-8 h; time when 50% of peptide has dissociated
[9] = target: T3, HLA-A*30:02 (Homo sapiens, UniProt P04439, D101N/D140H/D185E/E176R/F33S/G80R/H175R/K168Q/Q94H/R138E/R41S/V100E); settings: duplicated experiments, positive binder >40%
[10] = target: T4, HLA-B*58:01 (Homo sapiens, UniProt P01889, A329T/C349S/D201E/D98Y/E176V/E187L/E204Q/E69T/G107R/I218V/I90N/K202T/L105A/L119I/N104I/N87E/Q89R/Q94S/R106L/R155S/R180L/R86G/S101N/S121R/S35A/S48A/T118I/V127L/V306I/V36M/Y140S/Y91M); settings: duplicated experiments, positive binder >40%
[11] = target: T2, HLA-A*68:01
[12] = target: T4, HLA-B*58:01; settings: time points 0-8 h
[13] = target: T4, HLA-B*58:01
[14] = target: T2, HLA-A*68:01; settings: time points 0-8 h
[15] = target: T3, HLA-A*30:02; settings: time points 0-8 h
[16] = target: T3, HLA-A*30:02
[17] = peptide titrated 10−4 to 10−9 M
[18] = percent relative the binding of positive control peptide RYLKDQQLL
[19] = percent relative the binding of positive control peptide KTGGPIYKR
[20] = percent relative the binding of positive control peptide KTKDIVNGL
[21] = percent relative the binding of positive control peptide KYFDEHYEY
[22] = percent relative the binding of positive control peptide FLPSDFFPSV
[23] = percent relative the binding of positive control peptide KIQNFRVYY
[24] = percent relative the binding of positive control peptide IAMESIVIW
[25] = percent relative the binding of positive control peptide […]

Sequence | Aff A*02:01 (ED50) [1, 17] [µM] | Bind A*24:02 [2, 18] [%] | Bind A*68:01 [3, 19] [%] | Bind A*30:01 [4, 20] [%] | Bind C*07:01 [5, 21] [%] | Bind A*02:01 [6, 22] [%] | Bind B*07:02 [7] [%] | O-rate A*02:01 (t1/2) [8] [h] | Bind A*30:02 [9, 23] [%] | Bind B*58:01 [10, 24] [%] | Bind A*02:01 [6, 25] [%] | Aff A*68:01 (ED50) [11] | O-rate B*58:01 (t1/2) [12] [h] | Bind A*68:01 [3, 25] [%] | Bind C*07:01 [5, 25] [%] | Aff B*58:01 (ED50) [13] [µM] | O-rate A*68:01 (t1/2) [14] [h] | Bind B*58:01 [10, 25] [%] | also measured
KLAAAWGGS [Rv3875_38-46] | 0.1 | 33 | 0 | 0 | 11 | 57 | 6 | 2 | 39 | 21 |  |  |  |  |  |  |  |  | 
LLDEGKQSL [Rv3875_28–36] | 0.7 | 0 | 4 | 20 | 19 | 61 | 3 | 4.9 | 0 | 2 |  |  |  |  |  |  |  |  | 
MLDHAGDMA [Rv0288_11–19m1] |  |  |  |  |  |  |  | 1.5 |  |  | 48 |  |  |  |  |  |  |  | Aff A*02:01 (ED50) ([1]; […]): 0.06 µM
NLARTISEA [Rv3875_71–79] | 0.04 | 11 | 9 | 15 | 12 | 72 | 10 | 2.3 | 17 | 21 |  |  |  |  |  |  |  |  | 
QAWQAQWNQ [Rv0288_52–60] |  |  |  |  |  |  |  |  |  |  |  | 7e-06 M | 0.5 | 55 | 0 | 4 | 3.0 | 45 | 
QSSFYSDWY |  |  |  |  |  |  | 0 |  |  |  | 0 | 1E -06 M |  | 82 | 22 |  | 0.4 | 39 | Bind A*24:02 [2, 25]: 0%; Bind A*30:01 [4, 25]: 0%; O-rate A*30:02 (t1/2) [15]: 2.2 h; Bind A*30:02 [9, 25]: 90%; Aff A*30:02 (ED50) [16]: 0.6 µM
RDTAEAAKW [Rv0288_86–94] |  |  |  |  |  |  |  |  |  |  |  | 1e-05 M | 2.6 | 65 | 0 | 5 | 4.3 | 45 | 
SQIMYNYPT [Rv0288_2–10m1] |  |  |  |  |  |  |  | 0.7 |  |  | 47 |  |  |  |  |  |  |  | Aff A*02:01 (ED50) ([1]; […]): 1 µM; O-rate A*30:02 (t1/2) [15]: 0.5 h; Bind A*30:02 [9, 25]: 31%; Aff A*30:02 (ED50) [16]: 4 µM
WQGDTGITY [Rv0288_43–51] |  |  |  |  |  |  |  |  |  |  |  | 1e-05 M | 1.8 | 61 | 0 | 8 | 6.0 | 33 | 
